Results taken from US6197761A, “17β-2-oxo-tetrahydrofuranyl)-carbothioic acid ester, -carboxylic acid ester and -carboxylic acid amide androstane derivatives” (Glaxo Wellcome Inc., priority 1995, dated 2001).

Tests used:
[1] = system: rat ear oedema; assay: Anti-inflammatory activity: inhibition of rat ear oedema (croton oil); assay type: in vivo; conditions: dose 100 μg, topical to ear with 5% croton oil in acetone, male rats, 6 hours
Method: (i) Anti-inflammatory Activity--Inhibition of rat ear oedema
The test compounds are dissolved in acetone and 40 ul containing 5% croton oil is applied to the inner surface of each of the ears of 60-80 g male rats. Animals are killed 6 hours later and the ears are removed. Standard size (0.5 cm diameter) discs are punched out and the discs weighed. Mean weight of the ear discs is calculated and from this percentage inhibition of ear inflammation in relation to croton oil alone treated ears are calculated.

[2] = system: Adrenocorticotrophic hormone (ACTH); assay: Systemic effects: ACTH suppression in adrenalectomised rats; assay type: in vivo, rat; conditions: single intra-tracheal, adrenalectomised male CD rats, plasma ACTH at 4 h
Method: (ii) Systemic effects--ACTH suppression in adrenalectomised rats
Male CD rats (90-120 g) were adrenalectomised under Isoflurane anaesthesia and drinking water was supplemented with 0.9% saline. Four days later the animals receive a single intra-tracheal dose (under Isoflurane anaesthesia) of compound suspended in saline (containing 0.2% Tween-80, 0.2 ml) at 10 am. After 4 h animals are sacrificed by administration of Euthetal and blood samples are taken by intra-cardiac puncture and collected into heparinised tubes. The samples are centrifuged (20 minutes at 1000 RPM at 4 deg C.), the plasma is collected and assayed by Radioimmunoassay (RIA) for Adrenocorticotrophic hormone (ACTH) using a DPC double antibody RIA kit. Intact and vehicle control groups were included in each experiment in order to account for diurnal variation in ACTH and effects of vehicle. Results are calculated with respect to the RIA standard curve and expressed as ACTH pg/ml plasma, allowing percentage reduction in ACTH to be calculated.

Compound	% Inhibition (ear inflammation) [1] [%]	% Reduction in ACTH ([2]; dose 500 μg) [%]	% Reduction in ACTH ([2]; dose 1 μg) [%]	% Reduction in ACTH ([2]; dose 5 μg) [%]
CCC(=O)O[C@]1(C(=O)S[C@H]2CCOC2=O)[C@H](C)C[C@H]2[C@@H]3C[C@H](F)C4=CC(=O)C=C[C@]4(C)[C@@]3(F)[C@@H](O)C[C@@]21C [Example 2, 6α,9α-Difluoro-11β-hydroxy-16α-methyl-3-oxo-17α-propionyloxy-androsta-1,4-diene-17β-carbothioic acid S-(2-oxo-tetrahydro-furan-3S-yl)-ester]	42	0	–	–
CC1(C)O[C@@H]2C[C@H]3[C@@H]4C[C@H](F)C5=CC(=O)C=C[C@]5(C)[C@@]4(F)[C@@H](O)C[C@]3(C)[C@]2(C(=O)CO)O1 [Fluocinolone acetonide]	–	–	49	84
